Test results: ChEMBL document CHEMBL5215003, “Evaluating the in Vitro Efficacy of Quassinoids from Eurycoma longifolia and Eurycoma harmandiana against Common Cold Human Coronavirus OC43 and SARS-CoV-2 Using In-Cell Enzyme-Linked Immunosorbent Assay” (J Nat Prod, 2022)
Several values for one entry are separate records, joined by “and”; a condition that tells them apart may be missing. Identical values can stand only once.

What was measured:
HCT-8 = experiment: Cytotoxicity against human HCT-8 cells assessed as redcution in cell viability at 10 uM incubated for 96 hrs by PrestoBlue reagent based assay relative to control; assay type: toxicity; conditions: hct-8, 96 h
[1] = Cytotoxicity against human MRC5 cells assessed as reduction in cell viability incubated for 48 hrs by PrestoBlue reagent based assay; assay type: toxicity
[2] = Cytotoxicity against African green monkey Vero cells assessed as reduction in cell viability incubated for 48 hrs by PrestoBlue reagent based assay; assay type: toxicity; conditions: chlorocebus sabaeus
[3] = Antiviral activity against HCoV-OC43 infected in human HCT-8 cells assessed as inhibition of viral growth at 10 uM incubated for 4 days by ELISA analysis relative to control; assay type: functional, Human coronavirus OC43; design: scale not given: the % may be the effect or the level left; conditions: time 4 day
[4] = Cytotoxicity against human Calu-3 cells assessed as reduction in cell viability incubated for 48 hrs by PrestoBlue reagent based assay; assay type: toxicity
[5] = Cytotoxicity against human HCT-8 cells assessed as redcution in cell viability incubated for 96 hrs by PrestoBlue reagent based assay; assay type: toxicity
[6] = Cytotoxicity against human HepG2 cells assessed as reduction in cell viability incubated for 48 hrs by PrestoBlue reagent based assay; assay type: toxicity
SARS-CoV-2 [7] = experiment: microbe, parasite or virus in culture; assay type: functional, organism-based, Vero E6; conditions: Severe acute respiratory syndrome coronavirus 2, Vero C1008
SARS-CoV-2 [8] = experiment: Antiviral activity against SARS-CoV-2 infected in African green monkey Vero cells assessed as inhibition of viral growth incubated for 2 days by ELISA analysis; assay type: functional, organism-based; conditions: Severe acute respiratory syndrome coronavirus 2, Vero, 48 h
[9] = Antiviral activity against HCoV-OC43 infected in human HCT-8 cells assessed as inhibition of viral growth incubated for 4 days by ELISA analysis; assay type: functional, cell-based, Human coronavirus OC43; conditions: Betacoronavirus 1, HCT-8, 96 h
[10] = Selectivity index, ratio of CC50 for cytotoxicity against human HCT-8 cells to IC50 for antiviral activity against HCoV-OC43 infected in human HCT-8 cells; assay type: toxicity, cell-based; conditions: read-out: Ratio CC50/IC50
[11] = Selectivity index, ratio of CC50 for cytotoxicity against African green monkey Vero cells to IC50 for antiviral activity against SARS-CoV-2 infected in African green monkey Vero cells; assay type: toxicity, cell-based; conditions: read-out: Ratio CC50/IC50

Row | Structure (SMILES) | Activity (HCT-8) | CC50 at 48 h [1] | CC50 at 48 h [2] | Activity [3] | CC50 at 48 h [4] | CC50 at 96 h [5] | CC50 at 48 h [6] | IC50 (SARS-CoV-2 [7]) | IC50 (SARS-CoV-2 [8]) | IC50 [9] | selectivity ratio [10] | selectivity ratio [11]
1 | O=c1ccc2nccc3c4ccccc4n1c23 [CANTHIN-6-ONE] | 55.55% | 91.2 µM | > 100 µM | <20% | > 100 µM | 42.4 µM | 85.7 µM |  |  |  |  | 
2 | O=c1ccc2nccc3c4ccc(O)cc4n1c23 | 49.3% | > 100 µM | > 100 µM | <20% | > 100 µM | 60.9 µM | > 100 µM |  |  |  |  | 
3 | COc1ccc2c3ccnc4ccc(=O)n(c2c1)c43 | 33.49% | > 100 µM | > 100 µM | <20% | > 100 µM | 21.1 µM | > 100 µM |  |  |  |  | 
4 | COC(=O)[C@@]12OC[C@]34[C@H]([C@@H](O)[C@@H]1O)[C@@]1(C)CC(=O)C(O)=C(C)[C@@H]1C[C@H]3OC(=O)[C@H](OC(=O)C=C(C)C)[C@@H]24 |  |  |  |  |  |  |  | 0.049 µM |  |  |  | 
5 | O=C(O)CCc1nccc2c1[nH]c1cc(O)ccc12 | 108.23% | > 100 µM | > 100 µM | <20% | > 100 µM | 50.1 µM | > 100 µM |  |  |  |  | 
6 | O=C(O)CCc1nccc2c1[nH]c1ccccc12 | 108.05% | > 100 µM | > 100 µM | <20% | > 100 µM | > 100 µM | > 100 µM |  |  |  |  | 
7 | CC1=CC(=O)[C@@H](O)[C@]2(C)[C@H]3[C@]4(O)OC[C@@]35[C@@H](C[C@@H]12)OC(=O)[C@H](O)[C@@]5(O)[C@](C)(O)[C@H]4O | 70.13% | 54.3 µM | > 100 µM | 93.71% | > 100 µM | 48.7 µM | > 100 µM |  | 4.84 µM and 1.69 µg/mL | 0.25 µM | 195 | > 20.7
8 | CC1=CC(=O)[C@@H](O)[C@]2(C)[C@H]3[C@]4(O)OC[C@@]35[C@@H](C[C@@H]12)OC(=O)[C@H](O)[C@@]5(O)[C@]1(CO1)[C@H]4O | 100.88% | > 100 µM | > 100 µM | 61.73% | > 100 µM | > 100 µM | > 100 µM |  | 9.39 µM and 3.98 µg/mL | 5.88 µM | > 17 | > 10.7
9 | CC1=CC(=O)[C@@H](O)[C@]2(C)[C@H]3[C@]4(O)OC[C@@]35[C@@H](C[C@@H]12)OC(=O)C[C@H]5[C@](C)(O)[C@H]4O | 56.66% | 9.99 µM | 26.2 µM | 84.54% | 98.7 µM | 6.65 µM | 86.7 µM |  | 430 nM and 0.16 µg/mL | 0.32 µM | 20.8 | 61
10 | CCC(CC)COC(=O)[C@H](C)N[P@](=O)(OC[C@H]1O[C@@](C#N)(c2ccc3c(N)ncnn23)[C@H](O)[C@@H]1O)Oc1ccccc1 [REMDESIVIR] | 96.21% | > 100 µM | > 100 µM | 92.45% | > 100 µM | 53.2 µM | 52.6 µM |  | 22.5 µM | 0.32 µM | 166 | > 4.44
11 | O=c1ccc2nccc3c4ccc(O[C@@H]5O[C@H](CO)[C@@H](O)[C@H](O)[C@H]5O)cc4n1c23 | 53.28% | > 100 µM | > 100 µM | <20% | > 100 µM | 33.8 µM | > 100 µM |  |  |  |  | 
12 | C=C1CC[C@@H]2[C@](C)(CO)[C@H](O)CC[C@@]2(C)[C@@H]1C/C=C1/C(=O)OC[C@H]1O [ANDROGRAPHOLIDE] | 93.47% |  |  | 60.4% |  |  |  |  |  |  |  | 
13 | COc1ccc2c(c1)[nH]c1c(CCC(=O)O)nccc12 | 108.23% | > 100 µM | > 100 µM | <20% | > 100 µM | 79 µM | > 100 µM |  |  |  |  | 
14 | CC1=CC(=O)[C@@H](O)[C@]2(C)C3[C@@H](O)[C@@H]4OC(=O)[C@@H]([C@H]4C)[C@]3(C)C(=O)C[C@@H]12 (some centres undefined) | 71.14% | 31.2 µM | 57.1 µM | 90.27% | 41.9 µM | 58.9 µM | > 100 µM |  | 510 nM and 0.18 µg/mL | 0.37 µM | 159 | 112
15 | COC(=O)[C@@]12OC[C@]34[C@H]([C@@H](O)[C@@H]1O)[C@@]1(C)CC(=O)C(O)=C(C)[C@@H]1C[C@H]3OC(=O)[C@H](OC(=O)CC(C)C)[C@@H]24 [BRUCEINE A] |  |  |  |  |  |  |  | 0.011 µM |  |  |  | 
16 | C=C1[C@@H](O)[C@@]2(O)OC[C@]34[C@H]2[C@@]2(C)[C@H](O)C(=O)C=C(C)[C@@H]2C[C@H]3OC(=O)[C@H](O)[C@@]14O [EURYCOMANONE] | 72.16% | > 100 µM | > 100 µM | 57.93% | 88.1 µM | 59.2 µM | > 100 µM |  | 15 µM and 6.11 µg/mL | 4.47 µM | 13.2 | > 6.68
